Active and inactive are the calls of the source. The calls are words filed in the database; no cut-off is given here.
Tests used:
Angiopoietin-1 receptor [1] = target: T1, Angiopoietin-1 receptor (Homo sapiens, UniProt Q02763); test: Inhibition of Tyrosine protein kinase receptor TIE-2 (No effect)
[2] = target: T2, Vascular endothelial growth factor receptor 3 (Homo sapiens, UniProt P35916); test: Inhibition of Vascular endothelial growth factor receptor 3 (No effect)
[3] = target: T3, Epidermal growth factor receptor (Homo sapiens, UniProt P00533); test: Inhibition of Epidermal growth factor receptor (No effect)
[4] = target: T4, Vascular endothelial growth factor receptor 2 (Homo sapiens, UniProt P35968); test: Inhibition of Vascular endothelial growth factor receptor 2 (No effect)
[5] = target: T5, Insulin-like growth factor 1 receptor (Homo sapiens, UniProt P08069); test: Inhibition of Insulin-like growth factor I receptor (No effect)
[6] = target: T6, Receptor tyrosine-protein kinase erbB-2 (Homo sapiens, UniProt P04626); test: Inhibition of ERBB2 receptor kinase
[7] = target: T5, Insulin-like growth factor 1 receptor; test: Inhibition of Insulin-like growth factor I receptor
[8] = target: T2, Vascular endothelial growth factor receptor 3; test: Inhibition of Vascular endothelial growth factor receptor 3
[9] = target: T6, Receptor tyrosine-protein kinase erbB-2; test: Inhibition of ERBB2 receptor kinase (No effect)
Angiopoietin-1 receptor [10] = target: T1, Angiopoietin-1 receptor; test: Inhibition of Tyrosine protein kinase receptor TIE-2
[11] = target: T3, Epidermal growth factor receptor; test: Inhibition of Epidermal growth factor receptor
[12] = target: T4, Vascular endothelial growth factor receptor 2; test: Inhibition of Vascular endothelial growth factor receptor 2

T4 sequence (P35968 whole entry): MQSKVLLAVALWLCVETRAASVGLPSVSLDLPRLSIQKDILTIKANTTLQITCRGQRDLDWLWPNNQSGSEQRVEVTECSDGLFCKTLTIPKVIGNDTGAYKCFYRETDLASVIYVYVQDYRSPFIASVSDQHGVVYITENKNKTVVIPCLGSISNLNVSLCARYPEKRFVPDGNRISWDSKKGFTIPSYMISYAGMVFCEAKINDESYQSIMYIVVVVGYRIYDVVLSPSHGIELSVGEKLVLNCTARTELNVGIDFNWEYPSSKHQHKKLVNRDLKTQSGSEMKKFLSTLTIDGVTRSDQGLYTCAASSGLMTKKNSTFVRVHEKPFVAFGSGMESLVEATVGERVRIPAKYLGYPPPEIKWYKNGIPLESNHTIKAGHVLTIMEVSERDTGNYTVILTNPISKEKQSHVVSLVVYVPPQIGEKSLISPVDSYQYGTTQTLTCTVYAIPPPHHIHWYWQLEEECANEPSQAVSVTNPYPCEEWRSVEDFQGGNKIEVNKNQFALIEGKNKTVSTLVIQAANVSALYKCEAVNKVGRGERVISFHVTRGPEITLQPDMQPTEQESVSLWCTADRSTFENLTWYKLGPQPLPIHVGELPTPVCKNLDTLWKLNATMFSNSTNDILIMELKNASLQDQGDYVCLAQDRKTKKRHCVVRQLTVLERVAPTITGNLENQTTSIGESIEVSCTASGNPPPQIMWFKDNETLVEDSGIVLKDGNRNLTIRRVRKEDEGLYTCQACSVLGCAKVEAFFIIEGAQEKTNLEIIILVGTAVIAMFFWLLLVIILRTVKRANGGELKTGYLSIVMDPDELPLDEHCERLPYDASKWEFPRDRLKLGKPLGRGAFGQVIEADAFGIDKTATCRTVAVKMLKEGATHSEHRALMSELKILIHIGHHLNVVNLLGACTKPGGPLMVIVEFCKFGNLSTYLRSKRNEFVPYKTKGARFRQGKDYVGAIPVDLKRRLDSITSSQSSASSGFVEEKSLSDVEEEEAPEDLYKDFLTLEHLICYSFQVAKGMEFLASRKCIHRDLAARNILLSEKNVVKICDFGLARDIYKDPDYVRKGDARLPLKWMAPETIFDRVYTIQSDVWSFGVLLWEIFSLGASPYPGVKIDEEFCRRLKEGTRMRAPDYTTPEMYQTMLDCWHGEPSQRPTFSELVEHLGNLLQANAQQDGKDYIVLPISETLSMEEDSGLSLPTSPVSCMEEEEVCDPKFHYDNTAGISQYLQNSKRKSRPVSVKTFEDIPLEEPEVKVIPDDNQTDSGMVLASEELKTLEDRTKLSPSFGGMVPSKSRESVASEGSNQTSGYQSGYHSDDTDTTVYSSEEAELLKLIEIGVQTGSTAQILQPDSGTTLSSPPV
T3 sequence (P00533 whole entry): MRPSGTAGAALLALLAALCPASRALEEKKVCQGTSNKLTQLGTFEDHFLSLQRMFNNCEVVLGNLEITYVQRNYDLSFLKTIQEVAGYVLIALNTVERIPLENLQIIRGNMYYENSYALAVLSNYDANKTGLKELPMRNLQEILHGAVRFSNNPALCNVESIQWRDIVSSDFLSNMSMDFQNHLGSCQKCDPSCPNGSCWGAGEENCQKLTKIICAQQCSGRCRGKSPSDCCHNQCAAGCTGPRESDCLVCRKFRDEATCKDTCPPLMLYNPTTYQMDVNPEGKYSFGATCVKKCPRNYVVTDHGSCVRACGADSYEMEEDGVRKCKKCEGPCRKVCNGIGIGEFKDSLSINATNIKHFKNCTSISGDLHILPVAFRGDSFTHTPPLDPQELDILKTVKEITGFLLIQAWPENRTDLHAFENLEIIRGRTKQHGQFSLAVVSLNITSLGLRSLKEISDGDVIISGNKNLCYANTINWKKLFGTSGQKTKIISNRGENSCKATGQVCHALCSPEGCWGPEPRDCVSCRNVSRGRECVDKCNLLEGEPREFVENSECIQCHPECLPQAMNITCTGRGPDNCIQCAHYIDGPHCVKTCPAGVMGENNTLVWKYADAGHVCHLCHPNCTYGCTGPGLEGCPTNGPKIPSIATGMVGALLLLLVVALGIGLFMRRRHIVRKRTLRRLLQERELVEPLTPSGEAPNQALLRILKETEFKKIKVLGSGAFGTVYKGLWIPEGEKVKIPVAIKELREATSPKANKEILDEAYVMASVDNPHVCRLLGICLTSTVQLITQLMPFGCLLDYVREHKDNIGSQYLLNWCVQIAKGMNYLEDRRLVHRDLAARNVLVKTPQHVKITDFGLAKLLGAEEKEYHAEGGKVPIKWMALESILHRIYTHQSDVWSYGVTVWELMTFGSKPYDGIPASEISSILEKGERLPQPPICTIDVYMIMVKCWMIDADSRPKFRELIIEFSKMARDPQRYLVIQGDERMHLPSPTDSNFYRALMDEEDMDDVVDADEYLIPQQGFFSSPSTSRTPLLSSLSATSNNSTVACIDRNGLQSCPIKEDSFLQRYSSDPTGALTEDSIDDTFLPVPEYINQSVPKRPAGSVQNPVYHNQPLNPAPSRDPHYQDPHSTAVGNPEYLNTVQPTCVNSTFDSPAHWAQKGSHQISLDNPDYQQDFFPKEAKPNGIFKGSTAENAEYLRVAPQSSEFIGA
T6 sequence (P04626 whole entry): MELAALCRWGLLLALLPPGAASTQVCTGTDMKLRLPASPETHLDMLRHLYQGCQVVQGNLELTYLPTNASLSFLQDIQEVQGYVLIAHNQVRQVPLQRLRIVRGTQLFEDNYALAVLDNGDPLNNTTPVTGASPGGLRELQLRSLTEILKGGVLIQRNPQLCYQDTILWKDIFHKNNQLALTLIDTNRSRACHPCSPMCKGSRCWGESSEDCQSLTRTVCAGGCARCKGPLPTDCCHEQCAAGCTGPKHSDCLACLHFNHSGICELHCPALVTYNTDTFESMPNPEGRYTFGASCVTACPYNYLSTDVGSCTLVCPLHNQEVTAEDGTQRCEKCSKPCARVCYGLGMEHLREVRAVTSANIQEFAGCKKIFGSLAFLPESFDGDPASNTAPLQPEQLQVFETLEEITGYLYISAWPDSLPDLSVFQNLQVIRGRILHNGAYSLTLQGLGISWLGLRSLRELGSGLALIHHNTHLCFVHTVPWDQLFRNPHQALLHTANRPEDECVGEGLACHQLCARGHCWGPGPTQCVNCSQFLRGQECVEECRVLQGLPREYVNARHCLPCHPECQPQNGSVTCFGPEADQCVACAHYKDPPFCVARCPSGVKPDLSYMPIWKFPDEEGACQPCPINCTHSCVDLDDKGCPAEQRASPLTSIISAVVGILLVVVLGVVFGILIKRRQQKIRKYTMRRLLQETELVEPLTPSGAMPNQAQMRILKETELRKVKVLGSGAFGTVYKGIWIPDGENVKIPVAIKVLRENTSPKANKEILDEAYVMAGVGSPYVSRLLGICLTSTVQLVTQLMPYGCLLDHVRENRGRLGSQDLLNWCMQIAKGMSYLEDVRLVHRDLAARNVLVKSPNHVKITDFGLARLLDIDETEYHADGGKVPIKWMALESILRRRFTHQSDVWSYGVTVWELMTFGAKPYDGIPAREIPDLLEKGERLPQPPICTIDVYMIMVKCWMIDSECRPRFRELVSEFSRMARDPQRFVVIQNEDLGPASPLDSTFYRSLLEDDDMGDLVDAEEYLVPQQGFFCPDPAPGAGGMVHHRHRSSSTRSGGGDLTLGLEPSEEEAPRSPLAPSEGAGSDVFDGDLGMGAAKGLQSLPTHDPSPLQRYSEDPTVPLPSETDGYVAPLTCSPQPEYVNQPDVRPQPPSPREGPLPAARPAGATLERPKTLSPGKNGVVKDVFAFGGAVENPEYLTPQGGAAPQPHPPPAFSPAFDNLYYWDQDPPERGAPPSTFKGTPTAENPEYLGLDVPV
T1 sequence (Q02763 whole entry): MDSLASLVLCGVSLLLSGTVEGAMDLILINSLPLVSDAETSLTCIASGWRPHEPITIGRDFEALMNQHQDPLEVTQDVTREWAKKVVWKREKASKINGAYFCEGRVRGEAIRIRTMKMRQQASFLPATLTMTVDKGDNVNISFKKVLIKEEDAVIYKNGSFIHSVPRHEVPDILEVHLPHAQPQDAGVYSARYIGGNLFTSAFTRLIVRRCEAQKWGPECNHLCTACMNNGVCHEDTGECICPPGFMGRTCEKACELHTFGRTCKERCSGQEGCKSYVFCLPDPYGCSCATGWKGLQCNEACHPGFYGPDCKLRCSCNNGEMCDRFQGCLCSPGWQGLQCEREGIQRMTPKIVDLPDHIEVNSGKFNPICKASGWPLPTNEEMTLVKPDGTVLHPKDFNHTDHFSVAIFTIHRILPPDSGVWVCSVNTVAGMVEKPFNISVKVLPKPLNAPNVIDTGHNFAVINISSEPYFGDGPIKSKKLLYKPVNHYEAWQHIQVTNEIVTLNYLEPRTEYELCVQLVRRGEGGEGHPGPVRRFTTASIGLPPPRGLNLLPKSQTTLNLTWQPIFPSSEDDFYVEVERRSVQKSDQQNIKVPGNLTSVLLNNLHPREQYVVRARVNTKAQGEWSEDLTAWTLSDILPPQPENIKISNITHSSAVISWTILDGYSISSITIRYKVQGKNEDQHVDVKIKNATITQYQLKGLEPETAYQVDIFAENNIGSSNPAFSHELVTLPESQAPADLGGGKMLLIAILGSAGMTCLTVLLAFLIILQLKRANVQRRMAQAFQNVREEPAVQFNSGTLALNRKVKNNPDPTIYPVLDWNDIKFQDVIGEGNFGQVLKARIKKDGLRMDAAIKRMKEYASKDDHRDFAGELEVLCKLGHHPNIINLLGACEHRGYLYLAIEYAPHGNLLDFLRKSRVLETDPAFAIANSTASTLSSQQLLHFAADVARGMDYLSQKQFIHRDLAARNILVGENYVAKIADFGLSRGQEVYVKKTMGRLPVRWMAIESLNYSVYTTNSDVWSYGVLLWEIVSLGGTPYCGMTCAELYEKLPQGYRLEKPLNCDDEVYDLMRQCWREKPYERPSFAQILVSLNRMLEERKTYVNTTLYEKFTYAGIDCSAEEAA

| SMILES | NI (Angiopoietin-1 receptor [1]) | NI [2] | NI [3] | NI [4] | NI [5] | IC50 [6] [µM] | IC50 [7] [µM] | IC50 [8] [µM] | NI [9] | IC50 (Angiopoietin-1 receptor [10]) [µM] | IC50 [11] [µM] | IC50 [12] [µM] |
| --- | --- | --- | --- | --- | --- | --- | --- | --- | --- | --- | --- | --- |
| COC1=CC(=O)C=CC1=O | inactive | inactive | inactive | inactive | inactive | 29 |  |  |  |  |  |  |
| CC(O)C(/N=C1C=C(O)/C(=N\C(C(=O)O)C(C)O)C=C/1O)C(=O)O (configuration not stated) |  |  |  | inactive |  |  | 6 | 3 | inactive | 5 | 44 |  |
| COC1=CC(=O)C=C(/C=C2\CCCC3CCCCC23)C1=O (configuration not stated) |  | inactive |  | inactive | inactive | > 100 |  |  |  | 14 | > 100 |  |
| COC1=CC(=O)C=C(Cc2ccccc2)C1=O |  | inactive | inactive | inactive | inactive |  |  |  | inactive | 18 |  |  |
| CC(O)C(/N=C1\C(O)=CC(=O)C(O)=C1CC1CCCC2CCCCC21)C(=O)O (configuration not stated) |  | inactive |  |  |  |  | 0.5 |  | inactive | 9 | > 100 | > 50 |
| CC1=CCC[C@H]2[C@](C)(CC3=C(O)C(O)=C/C(=N\[C@@H](CO)C(=O)O)C3=O)[C@H](C)CC[C@]12C | inactive | inactive | inactive |  | inactive |  |  |  | inactive |  |  | 20 |
| COC1=CC(=O)C(N[C@@H](CO)C(=O)O)=CC1=O | inactive | inactive | inactive |  |  | > 100 | > 50 |  |  |  |  | 8 |

Source: ChEMBL document CHEMBL1145828, “Development of natural product-derived receptor tyrosine kinase inhibitors based on conservation of protein domain fold” (J Med Chem, 2003)
